# Biological target: T1, Dimer of Gag-Pol polyprotein [489-587] (Human immunodeficiency virus 1, UniProt P12497)
# T1 construct: 489-587
# Test: Protease Inhibition Assay
# Conditions: pH 5.5; 30 °C
smiles,measurement,value
"CC(C)(C)NC(=O)[C@@H]1C[C@@H]2CCCC[C@@H]2CN1C[C@@H](O)[C@H](Cc1ccccc1)NC(=O)[C@@H](NC(=O)c1ccc2ccccc2n1)[C@H]1CCOC1 [(3S,4aS,8aS)-N-tert-butyl-2-[(2R,3S)-2-hydroxy-3-[(2S)-2-[(3R)-oxolan-3-yl]-2-(quinolin-2-ylformamido)acetamido]-4-phenylbutyl]-decahydroisoquinoline-3-carboxamide]",IC50,0.054 nM

# Reference: BindingDB's records for doi:10.1021/jm00068a006 (Merck Research Laboratories, 1993)
